From the CheMixHub viscosity set
± gives the uncertainty stated by the source.

Assay: xn = mol fraction of the nth substance listed

SMILES: CCCCCCCCCCC + CCCCO
- viscosity (293.15 K, 100 kPa, x1 = 0.1003): 2.391 ± 0.051 mPa·s
- viscosity (293.15 K, 100 kPa, x1 = 0.3006): 1.749 ± 0.037 mPa·s
- viscosity (293.15 K, 100 kPa, x1 = 0.4): 1.549 ± 0.033 mPa·s
- viscosity (293.15 K, 100 kPa, x1 = 0.5006): 1.398 ± 0.03 mPa·s
- viscosity (293.15 K, 100 kPa, x1 = 0.6989): 1.223 ± 0.026 mPa·s
- viscosity (298.15 K, 100 kPa, x1 = 0.1003): 2.107 ± 0.045 mPa·s
- viscosity (298.15 K, 100 kPa, x1 = 0.4): 1.391 ± 0.03 mPa·s
- viscosity (298.15 K, 100 kPa, x1 = 0.5006): 1.264 ± 0.027 mPa·s
- viscosity (298.15 K, 100 kPa, x1 = 0.6013): 1.177 ± 0.025 mPa·s
- viscosity (298.15 K, 100 kPa, x1 = 0.6989): 1.119 ± 0.024 mPa·s
- viscosity (303.15 K, 100 kPa, x1 = 0.3006): 1.399 ± 0.03 mPa·s
- viscosity (303.15 K, 100 kPa, x1 = 0.4): 1.257 ± 0.027 mPa·s
- viscosity (303.15 K, 100 kPa, x1 = 0.5006): 1.15 ± 0.025 mPa·s
- viscosity (303.15 K, 100 kPa, x1 = 0.6013): 1.076 ± 0.023 mPa·s
- viscosity (303.15 K, 100 kPa, x1 = 0.6989): 1.028 ± 0.022 mPa·s
- viscosity (303.15 K, 100 kPa, x1 = 0.8018): 0.997 ± 0.021 mPa·s
- viscosity (303.15 K, 100 kPa, x1 = 0.8991): 0.974 ± 0.021 mPa·s
- viscosity (308.15 K, 100 kPa, x1 = 0.3006): 1.261 ± 0.027 mPa·s
- viscosity (308.15 K, 100 kPa, x1 = 0.4): 1.141 ± 0.024 mPa·s
- viscosity (308.15 K, 100 kPa, x1 = 0.5006): 1.05 ± 0.022 mPa·s
- viscosity (308.15 K, 100 kPa, x1 = 0.6013): 0.99 ± 0.021 mPa·s
- viscosity (308.15 K, 100 kPa, x1 = 0.6989): 0.949 ± 0.02 mPa·s
- viscosity (308.15 K, 100 kPa, x1 = 0.8018): 0.923 ± 0.02 mPa·s
- viscosity (313.15 K, 100 kPa, x1 = 0.1998): 1.288 ± 0.027 mPa·s
- viscosity (313.15 K, 100 kPa, x1 = 0.3006): 1.141 ± 0.024 mPa·s
- viscosity (313.15 K, 100 kPa, x1 = 0.4): 1.04 ± 0.022 mPa·s
- viscosity (313.15 K, 100 kPa, x1 = 0.5006): 0.964 ± 0.021 mPa·s
- viscosity (313.15 K, 100 kPa, x1 = 0.6013): 0.913 ± 0.02 mPa·s
- viscosity (313.15 K, 100 kPa, x1 = 0.6989): 0.879 ± 0.019 mPa·s
- viscosity (313.15 K, 100 kPa, x1 = 0.8018): 0.857 ± 0.018 mPa·s
- viscosity (313.15 K, 100 kPa, x1 = 0.8991): 0.838 ± 0.018 mPa·s
- viscosity (318.15 K, 100 kPa, x1 = 0.1998): 1.163 ± 0.025 mPa·s
- viscosity (318.15 K, 100 kPa, x1 = 0.3006): 1.037 ± 0.022 mPa·s
- viscosity (318.15 K, 100 kPa, x1 = 0.4): 0.952 ± 0.02 mPa·s
- viscosity (318.15 K, 100 kPa, x1 = 0.5006): 0.888 ± 0.019 mPa·s
- viscosity (318.15 K, 100 kPa, x1 = 0.6013): 0.845 ± 0.018 mPa·s
- viscosity (318.15 K, 100 kPa, x1 = 0.6989): 0.817 ± 0.017 mPa·s
- viscosity (318.15 K, 100 kPa, x1 = 0.8018): 0.798 ± 0.017 mPa·s
- viscosity (318.15 K, 100 kPa, x1 = 0.8991): 0.781 ± 0.017 mPa·s
- viscosity (323.15 K, 100 kPa, x1 = 0.1003): 1.199 ± 0.026 mPa·s
- viscosity (323.15 K, 100 kPa, x1 = 0.1998): 1.054 ± 0.022 mPa·s
- viscosity (323.15 K, 100 kPa, x1 = 0.3006): 0.947 ± 0.02 mPa·s
- viscosity (323.15 K, 100 kPa, x1 = 0.4): 0.874 ± 0.019 mPa·s
- viscosity (323.15 K, 100 kPa, x1 = 0.5006): 0.82 ± 0.018 mPa·s
- viscosity (323.15 K, 100 kPa, x1 = 0.6013): 0.785 ± 0.017 mPa·s
- viscosity (323.15 K, 100 kPa, x1 = 0.6989): 0.761 ± 0.016 mPa·s
- viscosity (323.15 K, 100 kPa, x1 = 0.8018): 0.746 ± 0.016 mPa·s
- viscosity (323.15 K, 100 kPa, x1 = 0.8991): 0.73 ± 0.016 mPa·s

SMILES: O[C@@H]1CO[C@H]2[C@@H]1OC[C@@H]2O + C[N+](C)(C)CC(=O)[O-]
- viscosity (298.15 K, 101.33 kPa, x1 = 0.7): 513.3 mPa·s

SMILES: OCCCl + CO
- viscosity (298.15 K, 101.33 kPa, x1 = 0.096): 0.615 ± 0.017 mPa·s
- viscosity (298.15 K, 101.33 kPa, x1 = 0.2122): 0.777 ± 0.02 mPa·s
- viscosity (298.15 K, 101.33 kPa, x1 = 0.2939): 0.91 ± 0.023 mPa·s
- viscosity (298.15 K, 101.33 kPa, x1 = 0.3927): 1.099 ± 0.027 mPa·s
- viscosity (298.15 K, 101.33 kPa, x1 = 0.4944): 1.321 ± 0.032 mPa·s
- viscosity (298.15 K, 101.33 kPa, x1 = 0.598): 1.591 ± 0.038 mPa·s
- viscosity (298.15 K, 101.33 kPa, x1 = 0.6969): 1.869 ± 0.043 mPa·s
- viscosity (298.15 K, 101.33 kPa, x1 = 0.7977): 2.13 ± 0.049 mPa·s
- viscosity (298.15 K, 101.33 kPa, x1 = 0.8997): 2.45 ± 0.056 mPa·s
- viscosity (303.15 K, 101.33 kPa, x1 = 0.096): 0.572 ± 0.016 mPa·s
- viscosity (303.15 K, 101.33 kPa, x1 = 0.2122): 0.721 ± 0.019 mPa·s
- viscosity (303.15 K, 101.33 kPa, x1 = 0.2939): 0.834 ± 0.021 mPa·s
- viscosity (303.15 K, 101.33 kPa, x1 = 0.3927): 1.003 ± 0.025 mPa·s
- viscosity (303.15 K, 101.33 kPa, x1 = 0.4944): 1.195 ± 0.029 mPa·s
- viscosity (303.15 K, 101.33 kPa, x1 = 0.598): 1.434 ± 0.034 mPa·s
- viscosity (303.15 K, 101.33 kPa, x1 = 0.6969): 1.632 ± 0.038 mPa·s
- viscosity (303.15 K, 101.33 kPa, x1 = 0.7977): 1.884 ± 0.044 mPa·s
- viscosity (303.15 K, 101.33 kPa, x1 = 0.8997): 2.14 ± 0.049 mPa·s
- viscosity (308.15 K, 101.33 kPa, x1 = 0.096): 0.529 ± 0.015 mPa·s
- viscosity (308.15 K, 101.33 kPa, x1 = 0.2122): 0.662 ± 0.018 mPa·s
- viscosity (308.15 K, 101.33 kPa, x1 = 0.2939): 0.767 ± 0.02 mPa·s
- viscosity (308.15 K, 101.33 kPa, x1 = 0.3927): 0.913 ± 0.023 mPa·s
- viscosity (308.15 K, 101.33 kPa, x1 = 0.4944): 1.084 ± 0.027 mPa·s
- viscosity (308.15 K, 101.33 kPa, x1 = 0.598): 1.287 ± 0.031 mPa·s
- viscosity (308.15 K, 101.33 kPa, x1 = 0.6969): 1.456 ± 0.035 mPa·s
- viscosity (308.15 K, 101.33 kPa, x1 = 0.7977): 1.675 ± 0.039 mPa·s
- viscosity (308.15 K, 101.33 kPa, x1 = 0.8997): 1.89 ± 0.044 mPa·s

SMILES: CCN(CC)CC(=O)Nc1c(C)cccc1C + Cc1ccc(C(C)C)c(O)c1
- viscosity (293.15 K, 100 kPa, x2 = 0.5): 177.3 ± 8.2 mPa·s
- viscosity (298.15 K, 100 kPa, x2 = 0.5): 111.3 ± 4.1 mPa·s
- viscosity (303.15 K, 100 kPa, x2 = 0.5): 73.71 ± 2.1 mPa·s
- viscosity (308.15 K, 100 kPa, x2 = 0.5): 51.05 ± 1.3 mPa·s
- viscosity (313.15 K, 100 kPa, x2 = 0.5): 36.76 ± 0.93 mPa·s
- viscosity (318.15 K, 100 kPa, x2 = 0.5): 27.36 ± 0.67 mPa·s
- viscosity (323.15 K, 100 kPa, x2 = 0.5): 20.98 ± 0.51 mPa·s
